Experimental data reported in the NIST ThermoML archive (doi:10.1021/je800497u).

Columns and labels:
[1] = 101 kPa, Liquid
[2] = xn = mol fraction of the nth substance listed; conditions: 101 kPa, Liquid

CCCCCO [pentan-1-ol]
[1]
Conditions	mass density [kg/m3]	viscosity [mPa·s]
293.15 K	814.6	4.029
298.15 K	811	3.494

CCCO [propan-1-ol]
[1]
Conditions	mass density [kg/m3]	viscosity [mPa·s]
293.15 K	803.5	2.272
298.15 K	799.6	1.966

CCCCCCCCCCCO [1-undecanol]
[1]
Conditions	mass density [kg/m3]	viscosity [mPa·s]
293.15 K	832.5	17.18
298.15 K	829	14.02

CCCCCCCCCO [nonan-1-ol]
[1]
Conditions	mass density [kg/m3]	viscosity [mPa·s]
293.15 K	827.9	11.68
298.15 K	824.4	9.671

CCCCCCCO [heptan-1-ol]
[1]
Conditions	mass density [kg/m3]	viscosity [mPa·s]
293.15 K	822.2	7.104
298.15 K	818.7	5.993

CCCCCCCCCCCO [1-undecanol] + CCCCCO
[2]
Conditions	mass density, 293.15 K [kg/m3]	mass density, 298.15 K [kg/m3]	viscosity, 293.15 K [mPa·s]	viscosity, 298.15 K [mPa·s]
x2 = 0	832.5	829	17.18	14.02
x2 = 0.1218	830.3	826.9	15.92	13.04
x2 = 0.2312	829.1	825.7	13.84	11.4
x2 = 0.3167	828	824.6	12.28	10.14
x2 = 0.4002	826.9	823.5	11.17	9.277
x2 = 0.5076	825.2	821.8	9.516	7.956
x2 = 0.6003	823.7	820.3	8.205	6.902
x2 = 0.6977	822	818.5	6.943	5.846
x2 = 0.7982	819.8	816.3	5.804	4.908
x2 = 0.8954	817.5	813.9	4.87	4.16

CCCCCCCO [heptan-1-ol] + CCCCCCCCCCCO
[2], x1 = 1
Conditions	mass density [kg/m3]	viscosity [mPa·s]
293.15 K	822.2	7.104
298.15 K	818.7	5.993

CCCCCCCCCO [nonan-1-ol] + CCCCCCCCCCCO
[2], x1 = 1
Conditions	mass density [kg/m3]	viscosity [mPa·s]
293.15 K	827.9	11.68
298.15 K	824.4	9.671

CCCCCO [pentan-1-ol] + CCCCCCCCCO
[2], x1 = 1
Conditions	mass density [kg/m3]	viscosity [mPa·s]
293.15 K	814.6	4.029
298.15 K	811	3.494

CCCCCCCCCCCO [1-undecanol] + CCCCCCCCCO
[2]
Conditions	mass density, 293.15 K [kg/m3]	mass density, 298.15 K [kg/m3]	viscosity, 293.15 K [mPa·s]	viscosity, 298.15 K [mPa·s]
x2 = 0	832.5	829	17.18	14.02
x2 = 0.1177	831.4	827.9	16.86	13.84
x2 = 0.248	830.8	827.4	16.21	13.3
x2 = 0.3116	830.5	827.1	15.57	12.72
x2 = 0.4007	830.2	826.8	15.49	12.68
x2 = 0.5017	829.8	826.4	14.66	12.03
x2 = 0.6004	829.4	826	13.83	11.33
x2 = 0.6921	829	825.6	13.5	11.12
x2 = 0.7943	828.6	825.2	12.79	10.55
x2 = 0.8915	828.1	824.7	12.06	9.982

CCCO [propan-1-ol] + CCCCCCCCCCCO
[2], x1 = 1
Conditions	mass density [kg/m3]	viscosity [mPa·s]
293.15 K	803.5	2.272
298.15 K	799.6	1.966

CCCCCCCCCCCO [1-undecanol] + CCCCCCCO
[2]
Conditions	mass density, 293.15 K [kg/m3]	mass density, 298.15 K [kg/m3]	viscosity, 293.15 K [mPa·s]	viscosity, 298.15 K [mPa·s]
x2 = 0	832.5	829	17.18	14.02
x2 = 0.1245	830.7	827.3	16.37	13.36
x2 = 0.2254	830	826.6	14.96	12.26
x2 = 0.2988	829.4	826	13.79	11.3
x2 = 0.4142	828.4	825	12.93	10.66
x2 = 0.5086	827.6	824.2	11.83	9.79
x2 = 0.5895	826.8	823.4	10.82	8.971
x2 = 0.6993	825.7	822.3	9.924	8.253
x2 = 0.7866	824.8	821.3	8.997	7.511
x2 = 0.8888	823.6	820.2	8.005	6.711
